How the values were obtained:
cathepsin B [1] = experiment: Cathepsin B species immunoblot in heart tissue of A53T mice; format: in vivo, mouse
Procedure: (§1) FIG. 8. PADK also enhances cathepsin B species in the heart. The A53T early α-synucleinopathy mouse model was injected daily with vehicle or PADK (i.p., 18 mg/kg/day) to test for changes in heart tissue. […] Positions of molecular weight standards (kDa) are shown on the left side of the immunoblot. (B) In the lower graph, ratios between CB-30 and CB-105 (mean±SEM) provide a good example of the unique PADK effect on cathepsin B species in the heart. **P<0.01 as compared to vehicle-treated A53T mice.
(§2) Ratio measures between the 30-kDa form and the 105-kDa species indicate a unique PADK effect on cathepsin B species in the heart (FIG. 8 bar graph).

[2] = biological target: T1, 30-kDa active form of cathepsin B (Rattus norvegicus, UniProt P00787); experiment: Active cathepsin B immunoblot in brain, eye and skin after oral dosing in rats; format: in vivo
T1 construct: assessed by immunoblot to label the 30-kDa active form of cathepsin B; from tissue; host or cells: Fischer rat brain regions (A5); rat brain regions, eye and skin after oral dosing (A18); rat organotypic heart slice cultures (A17)
Procedure: FIG. 10. The modulatory compound PADK up-regulates active cathepsin B in brain, eyes, and skin after oral dosing in rats. […] Four different brain regions were dissected and homogenates prepared, and equal protein aliquots were assessed by immunoblot to label the 30-kDa active form of cathepsin B (FC=frontal cortex).

cathepsin B [3] = biological target: cathepsin B (Mus musculus, UniProt P10605); experiment: Cathepsin B species immunoblot in heart tissue of A53T mice; format: in vivo; set-up: heart tissue was obtained to test for changes in cathepsin B; from tissue; host or cells: mouse heart, wild-type and A53T transgenic (A16); details: A53T mice; i.p., 18 mg/kg/day
Procedure: as §1, §2

rats = experiment: Adverse effect observation after oral dosing in rats; format: in vivo, rat; details: 15 mg/kg twice a day, 10 days
11-month Fischer rats = experiment: Passive avoidance task in 11-month Fischer rats (model of MCI and early dementia); format: in vivo, rat; details: 27 mg/kg daily
Procedure: FIG. 2. The cathepsin B modulatory compound PADK improved learning and memory in 11-month Fischer rats, a model of mild cognitive impairment (MCI) and early dementia. A classic passive avoidance task to assess memory utilized a bi-sectioned apparatus consisting of a brightly-lit compartment and a dark compartment separated by a small door. […] In this figure, the female rats were injected daily with vehicle or 27 mg/kg PADK. Following each morning's injection, the rats were placed individually into the bright compartment and, after 10 s, the door was opened through which the rats typically entered immediately (3 min total time in apparatus/rat/day). Panel A: On the seventh injection day, latency time before entering the opened doorway was measured (pre-shock bars, mean±SEM), after which the door was closed to contain the animal in the dark compartment. A mild foot shock of 0.6 mA, 2 s duration, was then administered to the contained rat via the floor grid. Following the next day's injections, rats were again placed in the bright compartment and latency times measured after the door was opened (post-shock bars). […] Brains were removed after the behavior studies in order to assess cathepsin B levels.
In the 11-month Fischer rats, a model of MCI and early dementia, PADK improved passive avoidance memory. […]

[4] = system: GluR1, GluR4, synaptophysin, and synapsin II; experiment: Synaptic marker immunoblot in hippocampal homogenates of A53T mice; format: in vivo, mouse; details: A53T mice injected daily for 11 days
Procedure: FIG. 7. The cathepsin B modulator PADK promotes synaptic integrity in the model of early α-synucleinopathy. The A53T transgenic and wildtype (wt) mice were injected daily with PADK or vehicle for 11 days. […] Mean GluR1 immunoreactivities±SEM are shown (B); post hoc test compared to vehicle-treated transgenics: *p<0.05.
Lysosomal enhancement also promoted protein clearance and synaptic protection in the Parkinson's disease transgenic mouse model expressing mutant A53T human α-synuclein (FIG. 4E). As in the other proteinopathy models, the reduction in human α-synuclein corresponded with active CatB levels that were increased 3-6 fold in brains of the PADK-treated A53T mice. […] The A53T mice were used at 7-8 months of age and behavioral studies confirmed the early α-synucleinopathy was pre-symptomatic, although a subtle change in anxiety behavior was detected (FIG. 5). PADK-mediated cathepsin B modulation was evident throughout the CNS, and the enhanced levels of the enzyme's active form corresponded with improved clearance of α-synuclein (FIG. 6) and recovery of several synaptic markers (FIG. 7A).

GluR1 = experiment: Immunoblot of postsynaptic marker GluR1 in hippocampal homogenates of Fischer rats; format: in vivo, rat; details: 27 mg/kg daily for 9 days; vs vehicle, p=0.0386
Procedure: FIG. 3. Lysosomal modulator PADK dramatically up-regulates active cathepsin B levels in middle-aged Fischer rats, a model of MCI. The female rats were injected daily with vehicle (veh) or 27 mg/kg PADK for 9 days. Brain regions were dissected, homogenates prepared, and equal protein aliquots were assessed by immunoblot to label the 30-kDa active form of cathepsin B as well as actin load controls (A). The hippocampal homogenate samples were also stained for the postsynaptic marker GluR1 to assess for synaptic recovery in correspondence to cathepsin B regulation (A, lower blots).
Brains were removed from the Fischer rats after the behavior studies in order to assess cathepsin B and synaptic marker levels. […] Cathepsin B immunoreactivity was increased 4- to 8-fold in hippocampal as well as neocortical homogenates, while non-lysosomal proteins remained unchanged (gel load controls). In addition to the correspondence with improved memory, there is evidence that the lysosomal modulation corresponds with synaptic recovery, assessing the postsynaptic marker GluR1 in hippocampus (FIG. 3A lower blots, and FIG. 3C). Without wishing to be bound by any scientific theory, the results support the hypothesis that lysosomal enhancement offsets the age-related cascade of microtubule destabilization, transport failure, synaptic decline, and cognitive impairment. […]

[5] = oral, peanut butter mixture, 15 mg/kg twice a day, 10 days

T1 sequence (P00787 80-333 limits assumed): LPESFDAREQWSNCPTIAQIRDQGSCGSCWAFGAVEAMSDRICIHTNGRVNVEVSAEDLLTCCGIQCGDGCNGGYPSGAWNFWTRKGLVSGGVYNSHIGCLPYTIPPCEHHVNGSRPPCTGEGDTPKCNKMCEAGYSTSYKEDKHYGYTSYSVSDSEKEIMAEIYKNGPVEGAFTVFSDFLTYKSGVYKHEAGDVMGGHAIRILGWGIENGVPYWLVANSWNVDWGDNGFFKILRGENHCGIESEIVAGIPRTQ
Sequence of cathepsin B (Mus musculus, UniProt P10605) (P10605 80-333): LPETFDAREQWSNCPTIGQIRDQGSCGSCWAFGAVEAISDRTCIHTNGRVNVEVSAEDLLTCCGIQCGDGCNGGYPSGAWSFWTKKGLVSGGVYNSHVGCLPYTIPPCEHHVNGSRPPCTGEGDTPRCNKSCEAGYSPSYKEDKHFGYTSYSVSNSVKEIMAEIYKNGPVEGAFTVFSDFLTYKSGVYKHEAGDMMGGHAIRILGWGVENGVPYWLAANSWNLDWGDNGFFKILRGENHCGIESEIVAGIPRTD

**Q.** Which results are given for `C[C@H](NC(=O)[C@H](Cc1ccccc1)NC(=O)OCc1ccccc1)C(=O)C=[N+]=[N-]` [PADK, N-carbobenzyloxy-L-phenylalanyl-L-alanyl-diazomethylketone]?
**A.** high molecular weight cathepsin B species (CB-80, CB-85, CB-105) in heart (cathepsin B [1]; A53T mice, i.p., 18 mg/kg/day): returned the high molecular weight species to near normal levels; ratio between active cathepsin B form of 30 kDa and the precursor of >100 kDa (cathepsin B [1]; heart tissue, p<0.01 vs vehicle-treated A53T mice): enhances the ratio; BBB crossing after oral dosing ([2]; inferred from enhanced active cathepsin B in brain regions after 10 days of 15 mg PADK/kg/0.5 day): crossing the BBB; active cathepsin B in brain [2, 5]: up-regulate; active cathepsin B in eye tissue [2, 5]: significant increases; active cathepsin B in skin tissue [2, 5]: significant increases; active form of cathepsin B (CB-30) in heart (cathepsin B [3]): robust PADK-mediated increase; adverse effects during behavioral tests (rats): no evidence of adverse effects; passive avoidance behavior (latency post-shock) (11-month Fischer rats; day after 0.6 mA foot shock, vs vehicle, P=0.016): improve passive avoidance behavior; latency time before entering the opened doorway, pre-shock (11-month Fischer rats; seventh injection day, vs vehicle-treated aged rats): no difference; levels of synaptic markers GluR1, GluR4, synaptophysin, and synapsin II [4]: improved levels; GluR1 levels in hippocampus (GluR1): increased
